Assay results published in BindingDB's records for doi:10.1021/np900246t (Griffith University, 2009).

Molecular target: MAP kinase-activated protein kinase 2 (Homo sapiens, UniProt P49137)
Test: Inhibition of GST-tagged MAPKAPK2 assessed as [33P] incorporation after 40 mins by scintillation proximity assay

MAP kinase-activated protein kinase 2, sequence (P49137 whole entry): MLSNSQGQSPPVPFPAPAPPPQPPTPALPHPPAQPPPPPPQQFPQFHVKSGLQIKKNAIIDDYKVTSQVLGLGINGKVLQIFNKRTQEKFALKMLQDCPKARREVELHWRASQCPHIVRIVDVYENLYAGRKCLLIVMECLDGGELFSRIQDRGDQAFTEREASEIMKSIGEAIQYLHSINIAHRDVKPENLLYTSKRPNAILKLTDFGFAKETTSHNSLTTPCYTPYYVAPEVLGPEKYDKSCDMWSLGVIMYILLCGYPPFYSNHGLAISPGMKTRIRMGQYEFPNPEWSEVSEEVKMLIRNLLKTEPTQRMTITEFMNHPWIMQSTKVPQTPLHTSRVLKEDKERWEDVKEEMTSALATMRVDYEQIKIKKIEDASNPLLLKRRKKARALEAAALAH

| IC50 [µM] | SMILES |
| --- | --- |
| 22 | CC(C)=CCC/C(C)=C/C[C@]12C[C@@H](CC=C(C)C)C(C)(C)[C@](C/C=C(\C)CCC=C(C)C)(C(=O)C(C(=O)c3ccc(O)c(O)c3)C1=O)C2=O (some centres not stated) [guttiferone O] |
| 22 | CC(C)=CCC/C(C)=C/C[C@]12C[C@@H](CC=C(C)C)[C@](C)(CCC=C(C)C)[C@](CC=C(C)C)(C(=O)C(C(=O)c3ccc(O)c(O)c3)C1=O)C2=O (some centres not stated) [guttiferone P] |
